Laboratory results reported in ChEMBL document CHEMBL4680126, “Indazolyl-substituted piperidin-4-yl-aminopyrimidines as HIV-1 NNRTIs: Design, synthesis and biological activities” (Eur J Med Chem, 2020).

Columns and labels:
[1] = system: Human immunodeficiency virus 1; assay: Antiviral activity against HIV-1 RES056 mutant strain infected in human MT4 cells assessed as reduction in virus-induced cytopathogenicity by MTT assay; type: functional, organism-based; settings: Human immunodeficiency virus 1, MT4
[2] = system: Human immunodeficiency virus 1; assay: Antiviral activity against HIV-1 K103N mutant strain infected in human MT4 cells assessed as reduction in virus-induced cytopathogenicity by MTT assay; type: functional, organism-based; settings: Human immunodeficiency virus 1, MT4
[3] = system: Human immunodeficiency virus 1; assay: Antiviral activity against HIV-1 E138K mutant strain infected in human MT4 cells assessed as reduction in virus-induced cytopathogenicity by MTT assay; type: functional, organism-based; settings: Human immunodeficiency virus 1, MT4
[4] = system: Human immunodeficiency virus 1; assay: Antiviral activity against HIV-1 Y181C mutant strain infected in human MT4 cells assessed as reduction in virus-induced cytopathogenicity by MTT assay; type: functional, organism-based; settings: Human immunodeficiency virus 1, MT4
[5] = Cytotoxicity against human MT4 cells assessed as inhibition of cell viability by measuring reduction in absorbance at OD540 by MTT assay; type: cell-based
[6] = system: Human immunodeficiency virus 2; assay: Antiviral activity against HIV-2 ROD strain infected in human MT4 cells assessed as reduction in virus-induced cytopathogenicity by MTT assay; settings: Human immunodeficiency virus 2, ISOLATE ROD
[7] = system: Human immunodeficiency virus 1; assay: Antiviral activity against wild type HIV-1 strain 3B infected in human MT4 cells assessed as reduction in virus-induced cytopathogenicity by MTT assay; type: functional, organism-based; settings: Human immunodeficiency virus 1, 3B
[8] = Selectivity index, ratio of CC50 for cytotoxicity against human MT4 cells reduction in cell viability by MTT assay to EC50 for antiviral activity against wild type HIV-1 strain IIIB infected in human MT4 cells assessed as reduction in virus-induced cytopathogenicity by MTT assay; type: toxicity, cell-based; settings: read-out: Selectivity Index

Compound | EC50 [1] | EC50 [2] | EC50 [3] | EC50 [4] | CC50 [5] | EC50 [6] | EC50 [7] | selectivity ratio [8]
Brc1cccc(Oc2ccnc(NC3CCN(Cc4n[nH]c5ccccc45)CC3)n2)c1 | > 22 µM | 4.9 µM | 3.5 µM | 6.1 µM | 22 µM | > 22 µM | 0.25 µM | 88
Cc1cc(Oc2ccnc(NC3CCN(Cc4n[nH]c5ccccc45)CC3)n2)cc(C)c1Cl | > 15 µM | 8.2 µM | 4.7 µM | 8.7 µM | 15 µM | > 15 µM | 0.37 µM | 41
N#Cc1ccc(Oc2ccnc(NC3CCN(Cc4n[nH]c5ccccc45)CC3)n2)cc1 | > 31 µM | 2.6 µM | 1.4 µM | 3.13 µM | 31 µM | > 31 µM | 0.078 µM | 397
FC(F)(F)c1cccc(Oc2ccnc(NC3CCN(Cc4n[nH]c5ccccc45)CC3)n2)c1 | > 22 µM | 8.9 µM | 7 µM | 9.7 µM | 22 µM | > 22 µM | 0.55 µM | 40
Brc1ccccc1Oc1ccnc(NC2CCN(Cc3n[nH]c4ccccc34)CC2)n1 | > 5.3 µM | 1.9 µM | 0.48 µM | 1 µM | 5.3 µM | > 5.3 µM | 0.031 µM | 171
FC(F)(F)c1ccc(Oc2ccnc(NC3CCN(Cc4n[nH]c5ccccc45)CC3)n2)cc1 | > 29 µM | 10 µM | 4.8 µM | > 29 µM | 29 µM | > 29 µM | 0.47 µM | 62
O=C1Nc2ccc(Cl)cc2[C@@](C#CC2CC2)(C(F)(F)F)O1 [EFAVIRENZ] | 0.24 µM | 0.076 µM | 0.0044 µM |  | > 6.3 µM |  | 0.0026 µM | > 2420
Cc1cc(C#N)cc(C)c1Oc1nc(Nc2ccc(C#N)cc2)nc(N)c1Br [ETRAVIRINE] |  |  |  |  | > 87 µM |  |  | > 28
Nc1ccn([C@@H]2CS[C@H](CO)O2)c(=O)n1 [LAMIVUDINE] | 0.028 µM | 0.019 µM | 0.019 µM | 0.012 µM | > 7.5 µM | 0.021 µM | 0.018 µM | > 417
Cc1ccnc2c1NC(=O)c1cccnc1N2C1CC1 [NEVIRAPINE] | 0.034 µM | 0.0032 µM | 0.0067 µM | 0.014 µM | > 4.6 µM |  | 0.0032 µM | > 1440
Cc1cn([C@H]2C[C@H](N=[N+]=[N-])[C@@H](CO)O2)c(=O)[nH]c1=O [ZIDOVUDINE] |  |  | 0.16 µM |  | > 15 µM |  |  | > 100
